This is an account of results in US20260284166A1, “NOVEL TUMOR ANTIGENS FOR MELANOMA AND USES THEREOF” (UNIVERSITÉ DE MONTRÉAL, priority 2023, published 2026).

Entries after “also recorded” stand apart in the source; their conditions may differ.

In this test the test system is CD8+ T cells from healthy donor PBMCs. Put plainly: Functional expansion of specific T cells (FEST) assay. It counts as cell-based, human. As to conditions: in vitro stimulation of healthy donor T cells with 1 μg/mL peptide, harvested day 20; TCR Vβ CDR3 sequencing of CD8+ cells. The source says:
aeTSA selection for Immunogenicity assay. Melanoma aeTSAs to be tested in T cell-based immunogenicity assays were selected based on the following criteria: 1) complete loss of expression (RPHM) on-therapy in at least one responder from the Riaz et al.^8 cohort capable to present the respective aeTSAs (at least one HLA allele with rank elution <2% in NetMHCpan4.1b^5), 2) elevated mean expression in TCGA-SKCM, 3) the HLA allotype presenting the aeTSA (HLA-A*02:01 or HLA-B*68:01 shared by the melanoma samples and PBMCs donors), 4) the aeTSA biotype (25% canonical, 75% non-canonical), 5) novel MAP status.
T cells were cultured as previously described^9, with minor modifications. Briefly, on day 0, thawed PBMCs from D36 (Miltenyi Biotec) were T cell-enriched using the Human Pan T cell isolation kit (Miltenyi Biotec). T cells were resuspended at 2×10^6/mL in AIM V media supplemented with 50 μg/mL gentamicin (ThermoFisher Scientific) and 1% HEPES. The T cell-negative fraction was irradiated at 30 Gγ, washed, and resuspended at 2×10^6/mL in AIM V media supplemented with 50 μg/mL gentamicin and 1% HEPES. 2.5 ml per well of both T cells and irradiated T cell-depleted cells were added to a 12-well plate, along with each peptide (GLS Biochem) (1 μg/mL final concentration) or without peptide. Cells were cultured for 10 days at 37° C., 5% CO2. On day 3 and 7, half the culture media was replaced with fresh culture media containing 100 IU/mL IL-2, 50 ng/mL IL-7, and 50 ng/mL IL-15 (day 3) and 200 IU/mL IL-2, 50 ng/mL IL-7, and 50 ng/mL IL-15 (day 7). On day 10, thawed PBMCs from the same donor were used to generate a new batch of T cell-depleted cells. These cells were irradiated at 30 Gγ and loaded with […] of relevant peptide or without peptide during 2 h at 37° C. These cells were washed and added to cultures at a 1:1 T cell:non-T cell ratio. […] On day 20, cells were harvested to perform FEST assays.
For FEST assays, CD8^+ cells were further isolated using the Human CD8^+ T Cell Isolation Kit (Miltenyi Biotec). […]
In the case of AAAGVSSTK [SEQ ID NO: 73], the “Amino acid sequences of the CDR3 of the TCRβ chain of the clonotypes expanded” value is “CASSPTNTYEQYF; also recorded: CASHPAGADMNTEAFF; also recorded: CASSLAGRETQYF; also recorded: CASSVWGEPYNEQFF; also recorded: CASSRTDSYEQYF; also recorded: CASSLQGANGYTF”.
GVDDLVFRR [SEQ ID NO: 64]: the “Amino acid sequences of the CDR3 of the TCRβ chain of the clonotypes expanded” value is recorded as “CASSPDPEGGEQYF; also recorded: CASSLQGHGYTF; also recorded: CASNVARTGGDISGDYEQYF; also recorded: CASSLGLAGSYEQYF; also recorded: CASSDSSYNSPLHF”.
Then HTLPALSRR [SEQ ID NO: 66], with “CASSFQGLNTEAFF (SEQ ID NO: 1103); also recorded: CASSPGQGNEKLFF (SEQ ID NO: 1104); also recorded: CASSLGSGYEQYF (SEQ ID NO: 1105); also recorded: CASSLGLYNEQFF (SEQ ID NO: 1106); also recorded: CASSPGTDYNEQFF (SEQ ID NO: 1107); also recorded: CATRPGAIRGYTF (SEQ ID NO: 1108); also recorded: CASSLIGGADTEAFF (SEQ ID NO: 1109)”.
